# In patent publication US20140106387A1, “METHOD FOR CONTROLLING NAD(P)/NAD(P)H RATIO BY OXIDOREDUCTASE” (MD BIOALPHA CO., LTD., priority 2006, published 2014):
# How the values were obtained:
# HEK293 cells = experiment: mitochondrial membrane potential (TMRE fluorescence) in HEK293 cells; assay type: cell-based, human
# Procedure: For determination of the inner mitochondrial membrane potential (ΔΨm), 20 nM of TMRE (tetramethylrhodamine ethyl ester) as a fluorescent indicator was continuously applied to be loaded on cells. In order to monitor mitochondrial Ca^2+, cells on glass coverslips were loaded with 10 μM Rhod-2 AM via cold loading/warm incubation. In order to monitor cytosolic Ca^2+, cells were co-loaded with 10 μM Fluo-4 AM at 37′C for 30 min. The cells were washed twice with a KB solution, and mounted in a perfusion chamber. Fluorescent imaging was taken using a confocal laser scanning microscope (LSM-510 META, Carl Zeiss) at a magnification of ×200 and ×400, in conjunction with appropriate laser lines and a filter set. Image analysis was carried out using LSM-510 META software (Zeiss). Images for TMRE (red fluorescence), Rhod-2 (red fluorescence) and Fluo-4 (green fluorescence) were obtained using an inverted Zeiss 510META laser-scanning confocal microscope equipped with ×63 numerical aperture, 1.4 oil-immersion planapochromat lens. Green fluorescence and red fluorescence were illuminated with light of 488 nm and 543 nm. Incident light was passed through a 545 nm dichroic mirror and observed via a 500 to 530 nm band-pass (green) filter and a 560 nm long-pass (red) barrier filter.
# However, such effects were not observed in HEK293 cells. […]
# [1] = mean body temperature after cold exposure; assay type: in vivo, mouse; conditions: ambient temperature of 4 for 12 hours
# [2] = body weight, dietary intake, fat and tissue histology in C57BL/6 DIO mice; assay type: in vivo, mouse
# Procedure: The removed tissues were cut into a proper size, fixed in 10% formalin, washed with water, and embedded in paraffin to prepare blocks, according to a conventional method. The thus-prepared blocks were sectioned into a 4 μm thickness and subjected to hematoxylin and eosin (H&E) staining for observation of general changes.
# For observation of cellular microstructures, the removed tissues were sliced into a size of 1 mm^3, pre-fixed in 2.5% glutaraldehyde (0.1M PBS, pH 7.4, 4° C.) for 2 to 4 hours, washed, and post-fixed in a 1% osmium tetroxide solution for 2 hours. Then, according to a conventional method, the tissues were dehydrated with serial concentrations of ethanol and the solvent was replaced with propylene oxide. The tissues were embedded in an epoxy resin mixture, and the embedded tissues were subjected to thermal polymerization to prepare blocks. The thus-prepared blocks were sectioned into a thickness of 0.5 to 1 μm using a ultramicrotome and stained with toludine blue. Observation sites were selected under a light microscope and the tissues were ultrasectioned to a thickness of 60 to 70 nm. The ultrasectioned specimens were subjected to dual staining of uranyl acetate and lead citrate and were observed under a transmission electron microscope (H-600, Hitachi, Japan) at an accelerating voltage of 75 kV.
# Cryosectioned tissues were sectioned into a thickness of 5 μm, dried in air for 1 hour and reacted in a filtered 0.5% oil red 0 solution for 20 min. The tissue sections were washed with tap water, subjected to double staining with Gill hematoxylin for 20 to 30 sec, water-washed, and observed.
# Adipose tissues were sectioned into a thickness of 3 μm, deparaffinized, exposed to antigens in a citrate buffer under high pressure for 4 min and washed. The mixture was reacted in a 3% hydrogen peroxide solution for 10 min, and the reaction product was washed three times with a TBST solution for 3 min. The product was reacted with primary antibodies (guinea pig, anti-perilipin) against 200-fold diluted perilipin for 1 hour and washed with a TBST solution. Secondary antibodies (donkey anti-guinea pig, cy3-conjugated) were added and reacted with the product for 30 min. The reaction product was washed three times with a TBST solution for 3 min, mounted with Fluormount G and then observed under a fluorescence microscope.
# Animals were continuously fed high-fat diet pellets for 3 to 4 weeks, thereby establishing DIO mice. Mice were raised in a breeding room with a 12 h/12 h light/dark D) cycle. Animals were divided into three groups, i.e., a group with administration of physiological saline (n=3), a group with administration of a vehicle (n=5) and a group with administration of 50 mg/kg of a candidate compound (n=7). Samples were orally administered to animals every day. On Days 7, 28 and 56, each tissue was removed, frozen in liquid nitrogen, and stored at […] for short and long periods of time.
# All experimental animal procedures were performed according to a guideline of Institutional Animal Care and Use Committee, Chungnam National University School of Medicine. OLETF rats were purchased from Otsuka Research Institute. Male ob/ob and C57BL/6 mice were purchased from Jackson Laboratory. Animals were housed in a breeding room maintained at a constant temperature of […] and a 12 h/12 h light/dark (L/D) cycle. 4-week-old C57BL/6 male mice were fed ad libitum high fat diet (HFD, 24% (w/w) and 45% calories as fat, Research Diets Inc., New Brunswick, N.J. 08901, US) for 7 weeks. Mouse groups were divided into an untreated group, a vehicle-treated group (calcium silicate), a pair-fed group and a candidate compound-treated group (calcium silicate-coated […] nanoparticles). Body weight and dietary intake of animals were daily measured. Upon completion of experiments, some mice of each group were anesthetized and received MRI examinations. The remaining mice of the groups were anatomized and tissue weight thereof was measured. […]
smiles,measurement,setting,value
"CC1(C)CCC2=C(O1)c1ccccc1C(=O)C2=O [βL, 2,2-Dimethyl-3,4-dihydro-2H-benzo[h]chromene-5,6-dione]",effect on TMRE fluorescence / ΔΨm,HEK293 cells,not observed
same,mean body temperature after cold exposure,[1],more resistant to the cold
same,EM of liver tissues,"[2]; C57BL/6 DIO mice, 56 days",remarkably decreased fat vacuoles and glycogen stores
same,"accumulated fat in the liver (oil red O staining), diminished compared to control","[2]; C57BL/6 DIO mice, 56 days",≥ 90%
same,visceral fat and body weight,"[2]; C57BL/6 DIO mice, 56 days",conspicuous decreases
same,"amounts of subcutaneous, mesenteric, perirenal and gonadal fats","[2]; C57BL/6 DIO, first four weeks of 56 days",gradually decreased
same,number of type 1 myofibers in the soleus muscle,[2]; DIO mice,increased
same,"size of adipocytes, brown adipose tissues (H&E staining, EM)","[2]; Day 56, 50 mg/kg daily oral",remarkably decreased
same,"size of adipocytes, gonadal adipose tissues (perilipin staining)","[2]; Day 56, 50 mg/kg daily oral",remarkably decreased
same,body weight,"[2]; obese mice on high-fat diet, 50 mg/kg daily oral, 56 days",continuous weight loss for 56 days
same,dietary intake,"[2]; obese mice, 50 mg/kg daily oral, 56 days",decreases in dietary intake for the first two weeks
same,muscle mitochondria (EM),[2]; βL-treated DIO mice and ob/ob mice,normal morphology and increased numbers of mitochondria
